Tests used:
Assay in all cases: relative viability (nuclei count vs DMSO), 5 days (fraction); higher = more cells survive
Vismodegib + Crizotinib = compound: CS(=O)(=O)c1ccc(C(=O)Nc2ccc(Cl)c(-c3ccccn3)c2)c(Cl)c1 [Vismodegib] + C[C@@H](Oc1cc(-c2cnn(C3CCNCC3)c2)cnc1N)c1c(Cl)ccc(F)c1Cl [Crizotinib] (partner 1 µM)
Summary of the method: (§1)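 Cells from lung cancer lines were seeded into 1536-well plates and, one day later, dosed by pin tool. Treatments were either a single drug or a fixed dose of an anchor drug with five library-drug doses (not always all listed) in √10 steps. After 5 days, nuclei were stained in a one-step fixation (final 0.05% Triton X-100, 1% formaldehyde, 1 ug/ml Hoechst) and counted on 4× images, and relative viability is the treated-to-vehicle nuclei ratio, as the median of duplicate plates.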

Ruxolitinib + Bortezomib = compound: N#CC[C@H](C1CCCC1)n1cc(-c2ncnc3[nH]ccc23)cn1 [Ruxolitinib] + CC(C)C[C@H](NC(=O)[C@H](Cc1ccccc1)NC(=O)c1cnccn1)B(O)O [Bortezomib] (partner 0.002 µM)
Summary of the method: as §1

VE-821 + Palbociclib = compound: CS(=O)(=O)c1ccc(-c2cnc(N)c(C(=O)Nc3ccccc3)n2)cc1 [VE-821] + CC(=O)c1c(C)c2cnc(Nc3ccc(N4CCNCC4)cn3)nc2n(C2CCCC2)c1=O [Palbociclib] (partner 0.5 µM)
Summary of the method: as §1

VE-821 + Phenformin = compound: CS(=O)(=O)c1ccc(-c2cnc(N)c(C(=O)Nc3ccccc3)n2)cc1 [VE-821] + N=C(N)NC(=N)NCCc1ccccc1 [Phenformin] (partner 250 µM)
Summary of the method: as §1

Cell Line | relative viability (Vismodegib + Crizotinib; first compound 0.08 µM) | relative viability (Vismodegib + Crizotinib; first compound 0.253 µM) | relative viability (Vismodegib + Crizotinib; first compound 0.8 µM) | relative viability (Vismodegib + Crizotinib; first compound 2.53 µM) | relative viability (Vismodegib + Crizotinib; first compound 8 µM) | relative viability (Ruxolitinib + Bortezomib; first compound 0.08 µM) | relative viability (Ruxolitinib + Bortezomib; first compound 0.253 µM) | relative viability (Ruxolitinib + Bortezomib; first compound 0.8 µM) | relative viability (Ruxolitinib + Bortezomib; first compound 2.53 µM) | relative viability (Ruxolitinib + Bortezomib; first compound 8 µM) | relative viability (VE-821 + Palbociclib; first compound 0.08 µM) | relative viability (VE-821 + Palbociclib; first compound 0.253 µM) | relative viability (VE-821 + Palbociclib; first compound 0.8 µM) | relative viability (VE-821 + Palbociclib; first compound 2.53 µM) | relative viability (VE-821 + Palbociclib; first compound 8 µM) | relative viability (VE-821 + Phenformin; first compound 0.08 µM) | relative viability (VE-821 + Phenformin; first compound 0.253 µM) | relative viability (VE-821 + Phenformin; first compound 0.8 µM) | relative viability (VE-821 + Phenformin; first compound 2.53 µM) | relative viability (VE-821 + Phenformin; first compound 8 µM)
SK-LU-1 | 1.02 | 0.817 | 0.874 | 0.881 | 0.997 | 0.465 | 1.07 | 1.3 | 1.03 | 0.936 | 0.408 | 0.424 | 0.323 | 0.376 | 0.261 | 0.675 | 0.528 | 0.497 | 0.383 | 0.216
NCI-H3122 | 0.307 | 0.286 | 0.255 | 0.295 | 0.268 | 1.02 | 0.986 | 0.92 | 0.926 | 0.873 | 0.196 | 0.187 | 0.166 | 0.225 | 0.227 | 0.394 | 0.348 | 0.354 | 0.349 | 0.332
CAL-12T | 0.693 | 0.761 | 0.685 | 0.773 | 0.807 | – | 0.856 | 1.1 | 0.979 | 0.535 | 0.571 | 0.373 | 0.472 | 0.51 | 0.308 | 0.585 | 0.526 | 0.611 | 0.523 | 0.396
HARA | 0.956 | 0.965 | 1.03 | 1.05 | 1.06 | 1.29 | 1.06 | 1.11 | 0.534 | 1.09 | 0.227 | 0.29 | 0.239 | 0.279 | 0.299 | 0.497 | 0.459 | 0.469 | 0.484 | 0.356
NCI-H1666 | 0.917 | 0.849 | 1.06 | 1 | 0.948 | 0.685 | 0.833 | 0.861 | 0.781 | 0.96 | 0.635 | 0.685 | 0.644 | 0.713 | 0.621 | 0.578 | 0.536 | 0.602 | 0.6 | 0.535
NCI-H460 | 0.985 | 0.925 | 1.04 | 0.936 | 0.999 | 1.06 | 1.11 | 1.29 | 1.01 | 0.86 | 0.203 | 0.166 | 0.159 | 0.0414 | 0.0344 | 0.574 | 0.482 | 0.398 | 0.205 | 0.0832
NCI-H1792 | 0.93 | 0.939 | 0.976 | 0.986 | 0.907 | 0.957 | 0.905 | 0.911 | 0.834 | 0.774 | 0.725 | 0.698 | 0.664 | 0.762 | 0.66 | 0.332 | – | 0.281 | 0.342 | 0.258
NCI-H2087 | 0.834 | 0.906 | 0.713 | 0.797 | 0.908 | 0.849 | 0.853 | 0.985 | 0.821 | 0.701 | 0.263 | 0.192 | 0.292 | 0.259 | 0.297 | 0.562 | 0.486 | 0.427 | 0.438 | 0.375
NCI-H1355 | 1.04 | 0.995 | 1.02 | 1.07 | 1.09 | 1.25 | 1.13 | 1.14 | 1.11 | 1.22 | 0.455 | 0.349 | 0.287 | 0.366 | 0.361 | 0.469 | 0.442 | 0.459 | 0.526 | 0.369
NCI-H838 | 0.816 | 0.787 | 0.885 | 0.821 | 0.848 | 0.875 | 0.652 | 0.887 | 0.398 | 0.342 | 0.222 | 0.186 | 0.218 | 0.266 | 0.191 | 0.605 | 0.454 | 0.528 | 0.599 | 0.385
SW 1573 | 0.895 | 0.755 | 0.827 | 0.774 | 0.956 | 0.981 | 1.04 | 1.01 | 0.939 | 0.896 | 0.419 | 0.439 | 0.449 | 0.353 | 0.315 | 0.405 | 0.293 | 0.358 | 0.456 | 0.162
NCI-H2085 | 0.867 | 0.873 | 0.854 | 0.826 | 0.83 | 0.964 | 1.06 | 1.26 | 0.904 | 0.822 | 0.481 | 0.489 | 0.493 | – | 0.552 | 0.762 | 0.674 | 0.558 | 0.869 | 0.481
NCI-H1651 | 0.776 | 0.851 | 0.871 | 0.825 | 0.829 | 0.944 | 0.923 | 0.937 | 0.794 | 0.969 | 0.523 | 0.547 | 0.502 | 0.565 | 0.519 | 0.349 | 0.305 | 0.361 | 0.32 | 0.283
NCI-H1993 | 0.995 | 0.958 | 0.768 | 0.851 | 0.906 | 0.893 | 1.02 | 1.23 | 1.26 | 1.29 | 0.673 | 0.619 | 0.561 | 0.635 | 0.537 | 0.457 | 0.439 | 0.527 | 0.482 | 0.524
NCI-H2126 | 1.11 | 0.96 | 1.08 | 0.991 | 1.04 | 1.12 | 1.21 | 1.24 | 1.15 | 1.18 | 0.36 | 0.336 | 0.333 | 0.296 | 0.32 | 0.565 | 0.494 | 0.51 | 0.514 | 0.409
LC-2-ad | 0.419 | 0.477 | 0.434 | 0.37 | 0.469 | 1.04 | 0.861 | 1.22 | 0.98 | 0.609 | 0.557 | 0.473 | 0.559 | 0.504 | 0.514 | 0.666 | 0.593 | 0.661 | 0.686 | 0.591

Source: the supplement of paper PMC10307832
